Source: ChEMBL document CHEMBL4130478, “Improved proteolytic stability and potent activity against Leishmania infantum trypanothione reductase of α/β-peptide foldamers conjugated to cell-penetrating peptides” (Eur J Med Chem, 2017)
The source made the active and inactive calls. The calls are words filed in the database; no cut-off is given here. Numbered stars: 1 amine (or outer) side, 2 acyl side, 3 side chain; on linkers, the order of the positions; unused ones are H or OH. Bridge positions count the residues as written; N and C are the ends. Square brackets hold non-standard residues; d marks the D form. Peptide text beside a SMILES is read from it. I, II: the chains in the order shown. X2 = NCCCC[C@H](N[*:2])C(=O)C1CCCCN([C@@H](CCC(=O)O)C(=O)[*:1])C(=O)C1; β3hI = CC[C@H](C)[C@H](N)CC(=O)O; β3hS = N[C@@H](CO)CC(=O)O; Nle = CCCC[C@H](N)C(=O)O

How the values were obtained:
[1] = Selectivity index, ratio of LC50 for cytotoxicity against human THP1 cells to LC50 for leishmanicidal activity against Leishmania infantum amastigotes; format: toxicity, cell-based; conditions: THP-1 cells, read-out: RatioLC50
[2] = Cytotoxicity against human THP1 cells after 24 hrs by propidium iodide staining based flow cytometry; format: cell-based; conditions: THP-1 cells, read-out: LC50
Leishmania infantum [3] = experiment: Leishmanicidal activity against Leishmania infantum amastigotes after 24 hrs by propidium iodide staining based flow cytometry; format: functional
[4] = Selectivity index, ratio of LC50 for cytotoxicity against human THP1 cells to LC50 for leishmanicidal activity against Leishmania infantum MCAN/ES/89/IPZ229/1/89 promastigotes; format: toxicity, cell-based; conditions: THP-1 cells, read-out: RatioLC50
Leishmania infantum [5] = experiment: Leishmanicidal activity against Leishmania infantum MCAN/ES/89/IPZ229/1/89 promastigotes after 24 hrs by propidium iodide staining based flow cytometry; format: functional; conditions: MCAN/ES/89/IPZ229/1/89, 24 h
Trypanothione reductase [6] = target: T1, Trypanothione reductase (Leishmania infantum, UniProt A4HSF7); experiment: Inhibition of dimerization of HIS/FLAG tagged Leishmania infantum trypanothione reductase incubated for 16 hrs in presence of dimerization buffer by ELISA
Leishmania infantum [7] = experiment: Leishmanicidal activity against Leishmania infantum MCAN/ES/89/IPZ229/1/89 promastigotes at 25 uM after 24 hrs by propidium iodide staining based flow cytometry; format: functional, organism-based
Trypanothione reductase [8] = target: T1, Trypanothione reductase; experiment: Inhibition of oxidoreductase activity of recombinant Leishmania infantum trypanothione reductase pre-incubated for 10 mins before T[S]2 and NADPH addition
Proteinase K = Proteinase K (Engyodontium album, UniProt P06873); experiment: Stability assessed as Tritirachium album proteinase K-mediated compound degradation by measuring half life at 50 uM by HPLC method; format: ADME; conditions: parengyodontium album
Leishmania infantum [9] = experiment: Leishmanicidal activity against Leishmania infantum amastigotes at 25 uM after 24 hrs by propidium iodide staining based flow cytometry; format: functional, organism-based

T1 sequence (A4HSF7 whole entry): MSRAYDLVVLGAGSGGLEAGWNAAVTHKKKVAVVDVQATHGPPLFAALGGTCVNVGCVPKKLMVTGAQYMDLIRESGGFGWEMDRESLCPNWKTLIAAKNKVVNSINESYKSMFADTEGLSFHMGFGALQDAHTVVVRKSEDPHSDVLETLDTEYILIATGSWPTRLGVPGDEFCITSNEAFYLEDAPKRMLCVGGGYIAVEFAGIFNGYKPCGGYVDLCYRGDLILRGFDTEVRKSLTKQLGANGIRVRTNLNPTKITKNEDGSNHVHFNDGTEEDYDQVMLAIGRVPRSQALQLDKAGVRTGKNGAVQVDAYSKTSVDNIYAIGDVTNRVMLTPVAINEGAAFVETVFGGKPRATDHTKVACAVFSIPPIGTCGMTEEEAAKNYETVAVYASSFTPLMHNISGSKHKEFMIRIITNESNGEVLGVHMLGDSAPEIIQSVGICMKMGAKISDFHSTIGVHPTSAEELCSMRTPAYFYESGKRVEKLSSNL
Sequence of Proteinase K (P06873 whole entry): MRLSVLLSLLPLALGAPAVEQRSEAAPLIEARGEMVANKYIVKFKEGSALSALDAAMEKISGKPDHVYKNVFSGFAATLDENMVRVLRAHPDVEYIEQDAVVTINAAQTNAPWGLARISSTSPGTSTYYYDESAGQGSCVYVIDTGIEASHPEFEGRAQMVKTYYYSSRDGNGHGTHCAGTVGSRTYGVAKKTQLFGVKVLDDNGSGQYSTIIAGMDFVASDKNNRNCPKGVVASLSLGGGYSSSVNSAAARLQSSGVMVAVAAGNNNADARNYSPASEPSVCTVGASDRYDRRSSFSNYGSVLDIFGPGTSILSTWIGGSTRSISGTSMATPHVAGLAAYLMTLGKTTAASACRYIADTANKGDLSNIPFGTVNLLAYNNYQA

CCCCCCCCCCCCCCCCCCOC[C@H](COP(=O)([O-])OCC[N+](C)(C)C)OC [(R)-EDELFOSINE] gave a selectivity ratio [1] of 1.7, a CC50 at 24 h [2] of 1 µM and an LC50 (Leishmania infantum [3]) of 0.6 µM. The selectivity ratio [4] was less than 1 and the LC50 (Leishmania infantum [5]) was 9 µM.
CCCC[C@H](NC(=O)[C@H](CCCCN)NC(=O)[C@H](CC(C)C)NC(=O)C[C@H](CO)NC(=O)[C@@H](NC(=O)CNC(=O)[C@@H](NC(=O)C[C@H](CO)NC(=O)[C@H](CCC(N)=O)NC(=O)[C@@H](NC(=O)C[C@@H](NC(=O)[C@H](CCCCN)NC(=O)[C@@H]1CCCN1C(=O)[C@H](CCCNC(=N)N)NC(=O)[C@H](CCCNC(=N)N)NC(=O)[C@H](CCCNC(=N)N)NC(=O)[C@H](CCCNC(=N)N)NC(=O)[C@H](CCCNC(=N)N)NC(=O)[C@H](CCCNC(=N)N)NC(=O)[C@H](CCCNC(=N)N)NC(=O)[C@H](CCCNC(=N)N)NC(=O)[C@@H](N)CCCNC(=N)N)[C@@H](C)CC)[C@@H](C)CC)C(C)C)[C@@H](C)CC)C(N)=O (H-RRRRRRRRRPK[β3hI]IQ[β3hS]VGI[β3hS]LK[Nle]-NH2) showed a selectivity ratio [1] of 3.1, a CC50 at 24 h [2] of 5.8 µM and an LC50 (Leishmania infantum [3]) of 1.9 µM. For the same molecule, the selectivity ratio [4] was 5.9 and the LC50 (Leishmania infantum [5]) was 0.98 µM.
In the case of N=C(N)NCCC[C@H](NC(=O)[C@H](CCCNC(=N)N)NC(=O)[C@H](CCCNC(=N)N)NC(=O)[C@H](CCCNC(=N)N)NC(=O)[C@H](CCCNC(=N)N)NC(=O)[C@H](CCCNC(=N)N)NC(=O)[C@H](CCCNC(=N)N)NC(=O)[C@H](CCCNC(=N)N)NC(=O)[C@@H](N)CCCNC(=N)N)C(N)=O, the CC50 at 24 h [2] is reported as greater than 25 µM, the LC50 (Leishmania infantum [3]) is reported as greater than 25 µM and the LC50 (Leishmania infantum [5]) is reported as greater than 25 µM.
With CC[C@H](C)[C@H](NC(=O)CNC(=O)[C@@H](NC(=O)[C@H](CO)NC(=O)[C@H](CCC(N)=O)NC(=O)[C@@H](NC(=O)[C@@H](NC(=O)[C@H](CCCCN)NC(=O)[C@@H]1CCCN1C(=O)[C@H](CCCNC(=N)N)NC(=O)[C@H](CCCNC(=N)N)NC(=O)[C@H](CCCNC(=N)N)NC(=O)[C@H](CCCNC(=N)N)NC(=O)[C@H](CCCNC(=N)N)NC(=O)[C@H](CCCNC(=N)N)NC(=O)[C@H](CCCNC(=N)N)NC(=O)[C@H](CCCNC(=N)N)NC(=O)[C@@H](N)CCCNC(=N)N)[C@@H](C)CC)[C@@H](C)CC)C(C)C)C(=O)N[C@@H](CO)C(=O)N[C@@H](CC(C)C)C(=O)N[C@@H](CCCCN)C(=O)N[C@@H](CC(C)C)C(=O)O (H-RRRRRRRRRPKIIQSVGISLKL-OH) the selectivity ratio [1] was less than 1, the CC50 at 24 h [2] was 1.7 µM and the LC50 (Leishmania infantum [3]) was 3.5 µM. For the same molecule, the selectivity ratio [4] was less than 1 and the LC50 (Leishmania infantum [5]) was 4.6 µM.
CCCC[C@H](NC(=O)[C@H](CCCCN)NC(=O)[C@H](CCCC)NC(=O)[C@H](CO)NC(=O)[C@@H](NC(=O)CNC(=O)[C@H](CCCCN)NC(=O)[C@H](CO)NC(=O)[C@H](CCC(N)=O)NC(=O)[C@@H](NC(=O)[C@H](CCC(=O)O)N1CCCCC(C(=O)[C@H](CCCCN)NC(=O)[C@@H]2CCCN2C(=O)[C@H](CCCNC(=N)N)NC(=O)[C@H](CCCNC(=N)N)NC(=O)[C@H](CCCNC(=N)N)NC(=O)[C@H](CCCNC(=N)N)NC(=O)[C@H](CCCNC(=N)N)NC(=O)[C@H](CCCNC(=N)N)NC(=O)[C@H](CCCNC(=N)N)NC(=O)[C@H](CCCNC(=N)N)NC(=O)[C@@H](N)CCCNC(=N)N)CC1=O)[C@@H](C)CC)[C@@H](C)CC)C(=O)O (stereo partly specified) (I: IQSKGIS[Nle]K[Nle]-OH / II: H-RRRRRRRRRP; linker I:N-II:C via X2) gave a selectivity ratio [1] of less than 1, a CC50 at 24 h [2] of 2.5 µM and an LC50 (Leishmania infantum [3]) of 2.8 µM. The selectivity ratio [4] was less than 1 and the LC50 (Leishmania infantum [5]) was 3.5 µM.
CCCCCCCCCCCCCCCCOP(=O)([O-])OCC[N+](C)(C)C [MILTEFOSINE] gave a selectivity ratio [1] of 9.5, an LC50 (Leishmania infantum [3]) of 2 µM and a selectivity ratio [4] of less than 1.
For CCCC[C@H](NC(=O)C[C@H](CCCCN)NC(=O)[C@H](CCCC)NC(=O)C[C@H](CO)NC(=O)C[C@@H](NC(=O)CNC(=O)[C@@H](NC(=O)C[C@H](CO)NC(=O)C[C@H](CCC(N)=O)NC(=O)[C@@H](NC(=O)[C@@H](NC(=O)C[C@H](CCCCN)NC(=O)C[C@@H]1CCCN1C(C)=O)[C@@H](C)CC)[C@@H](C)CC)C(C)C)[C@@H](C)CC)C(N)=O, the IC50 (Trypanothione reductase [6]) was 15.5 µM, the Activity (Leishmania infantum [7]) was “inactive” and the IC50 (Trypanothione reductase [8]) was 9.28 µM. For the same molecule, the half-life at 50 µM (Proteinase K) was 5.28 h and the Activity (Leishmania infantum [9]) was “inactive”.
